In brackets after ≈: the same amount, converted by molar mass.

Common to all, as to test: microbe, parasite or virus in culture
Assay [1] has as its system Mycobacterium tuberculosis. The settings on record: isolate 9449/06, 504 h.
The subject of assay [2] is Mycobacterium tuberculosis. To be noted: isolate 7357/98, 336 h.
Assay [3] has as its system Mycobacterium tuberculosis. The settings on record: isolate 7357/98, 504 h.
Assay [4] concerns Mycobacterium tuberculosis. To be noted: isolate 2092/05, 504 h.
The subject of assay [5] is Mycobacterium tuberculosis. To be noted: isolate 9449/06, 336 h.
The subject of assay [6] is Mycobacterium tuberculosis. To be noted: isolate Praha 128, 336 h.
Assay [7] concerns Mycobacterium tuberculosis. The settings on record: isolate Praha 1, 336 h.
The test system of assay [8] is Mycobacterium tuberculosis. The settings on record: isolate Praha 128, 504 h.
Assay [9] has as its system Mycobacterium tuberculosis. The settings on record: isolate Praha 1, 504 h.
Assay [10] deals with Mycobacterium tuberculosis. To be noted: isolate 2092/05, 336 h.

In the case of `CCCCCCNC(=O)Oc1ccc(Cl)cc1C(=O)Nc1cccc(Cl)c1`, the MIC in assay [1] stood at 1 µM (≈ 0.409 µg/mL); in assay [2], 1 µM (≈ 0.409 µg/mL); in [3], 1 µM (≈ 0.409 µg/mL); in [4], 2 µM (≈ 0.819 µg/mL); in assay [5], 1 µM (≈ 0.409 µg/mL); in [6] it was 1 µM (≈ 0.409 µg/mL). The MIC in assay [7] was 1 µM (≈ 0.409 µg/mL); in assay [8], 2 µM (≈ 0.819 µg/mL); in assay [9] it was 2 µM (≈ 0.819 µg/mL); in assay [10], 1 µM (≈ 0.409 µg/mL).
Consider `CCCCCCCCNC(=O)Oc1ccc(Cl)cc1C(=O)Nc1ccc(Cl)c(Cl)c1`, for which the MIC in assay [1] was 0.5 µM (≈ 0.236 µg/mL); in assay [2] it was 1 µM (≈ 0.472 µg/mL); in assay [3], 1 µM (≈ 0.472 µg/mL); in assay [4], 1 µM (≈ 0.472 µg/mL); in assay [5], 1 µM (≈ 0.472 µg/mL); in assay [6] it was 0.5 µM (≈ 0.236 µg/mL). The MIC in assay [7] is 1 µM (≈ 0.472 µg/mL); in assay [8] it was 1 µM (≈ 0.472 µg/mL); in [9] it was 2 µM (≈ 0.944 µg/mL); in [10] it was 0.5 µM (≈ 0.236 µg/mL).
For `CCCCCCNC(=O)Oc1ccc(Cl)cc1C(=O)Nc1ccc(Cl)c(Cl)c1`, the MIC in assay [1] is 0.5 µM (≈ 0.222 µg/mL); in assay [2] it was 0.5 µM (≈ 0.222 µg/mL); in assay [3] it was 1 µM (≈ 0.444 µg/mL); in [4], 0.5 µM (≈ 0.222 µg/mL); in [5], 0.5 µM (≈ 0.222 µg/mL); in assay [6], 0.5 µM (≈ 0.222 µg/mL). Besides, the MIC amounted to 0.5 µM (≈ 0.222 µg/mL) in [7], 0.5 µM (≈ 0.222 µg/mL) in assay [8], 1 µM (≈ 0.444 µg/mL) in [9] and 0.5 µM (≈ 0.222 µg/mL) in [10].
For `CCCCNC(=O)Oc1ccc(Cl)cc1C(=O)Nc1ccc(Cl)c(Cl)c1`, the MIC in [1] stood at 0.5 µM (≈ 0.208 µg/mL); in assay [2] it was 0.5 µM (≈ 0.208 µg/mL); in assay [3] it was 1 µM (≈ 0.416 µg/mL); in [4] it was 1 µM (≈ 0.416 µg/mL); in [5], 1 µM (≈ 0.416 µg/mL); in assay [6] it was 0.5 µM (≈ 0.208 µg/mL). Moreover, the MIC in assay [7] worked out at 0.5 µM (≈ 0.208 µg/mL); in assay [8], 1 µM (≈ 0.416 µg/mL); in assay [9], 1 µM (≈ 0.416 µg/mL); in [10], 0.5 µM (≈ 0.208 µg/mL).
As for `CCNC(=O)Oc1ccc(Cl)cc1C(=O)Nc1ccc(Cl)c(Cl)c1`, the MIC in assay [1] is 0.5 µM (≈ 0.194 µg/mL); in assay [2], 0.5 µM (≈ 0.194 µg/mL); in assay [3] it was 1 µM (≈ 0.388 µg/mL); in assay [4], 0.5 µM (≈ 0.194 µg/mL); in [5], 0.5 µM (≈ 0.194 µg/mL); in assay [6], 0.5 µM (≈ 0.194 µg/mL). Further, the MIC in assay [7] was 0.5 µM (≈ 0.194 µg/mL); in assay [8], 0.5 µM (≈ 0.194 µg/mL); in assay [9], 1 µM (≈ 0.388 µg/mL); in [10] it was 0.5 µM (≈ 0.194 µg/mL).
As to `CCCCCCCNC(=O)Oc1ccc(Cl)cc1C(=O)Nc1ccc(Cl)c(Cl)c1`, the MIC in [1] amounted to 0.5 µM (≈ 0.229 µg/mL); in assay [2], 0.5 µM (≈ 0.229 µg/mL); in [3], 0.5 µM (≈ 0.229 µg/mL); in assay [4] it was 1 µM (≈ 0.458 µg/mL); in assay [5] it was 0.5 µM (≈ 0.229 µg/mL); in assay [6], 0.5 µM (≈ 0.229 µg/mL). Moreover, the MIC in [7] came out at 0.5 µM (≈ 0.229 µg/mL); in assay [8], 1 µM (≈ 0.458 µg/mL); in [9] it was 1 µM (≈ 0.458 µg/mL); in assay [10], 0.5 µM (≈ 0.229 µg/mL).
For `CCCCCNC(=O)Oc1ccc(Cl)cc1C(=O)Nc1ccc(Cl)cc1`, the MIC in assay [1] amounted to 1 µM (≈ 0.395 µg/mL); in assay [2], 1 µM (≈ 0.395 µg/mL); in assay [3] it was 2 µM (≈ 0.791 µg/mL); in assay [4], 1 µM (≈ 0.395 µg/mL); in [5], 1 µM (≈ 0.395 µg/mL); in assay [6], 1 µM (≈ 0.395 µg/mL). For the same compound, the MIC in [7] came out at 1 µM (≈ 0.395 µg/mL); in [8] it was 1 µM (≈ 0.395 µg/mL); in assay [9], 2 µM (≈ 0.791 µg/mL); in [10], 1 µM (≈ 0.395 µg/mL).
Consider `NNC(=O)c1ccncc1` [ISONIAZID], for which the MIC in [1], in assay [2], in [3], in assay [4], in assay [5] and in assay [6] was 16 µM (≈ 2.19 µg/mL) each time. The MIC in assay [7], in assay [8], in assay [9] and in [10] was 16 µM (≈ 2.19 µg/mL) in each case.
Consider `CCCCCNC(=O)Oc1ccc(Cl)cc1C(=O)Nc1ccc(Cl)c(Cl)c1`, for which the MIC in assay [1], in [2], in [3], in assay [4], in assay [5] and in assay [6] was 0.5 µM (≈ 0.215 µg/mL) in each case. The MIC was determined as 0.5 µM (≈ 0.215 µg/mL) in [7], 0.5 µM (≈ 0.215 µg/mL) in assay [8], 1 µM (≈ 0.43 µg/mL) in assay [9] and 0.5 µM (≈ 0.215 µg/mL) in assay [10].

The record behind these values is ChEMBL document CHEMBL1159126, “Salicylanilide carbamates: antitubercular agents active against multidrug-resistant Mycobacterium tuberculosis strains” (Bioorg Med Chem, 2010).
